{"source": "paper PMC8534150", "about": "“New Insights to Regulation of Fructose-1,6-bisphosphatase during Anoxia in Red-Eared Slider, Trachemys scripta elegans” (Biomolecules, 2021)", "assay_in_all_cases": "coupled phosphoglucoisomerase / glucose-6-phosphate dehydrogenase assay, NADP+ reduction at […] nm", "type_in_all_cases": "biochemical, Trachemys scripta elegans", "key": {"[1]": {"target": "T1, FBPase (anoxic liver)", "T1 construct": "gene FBP1; native, purified from liver of 20 h anoxic turtles", "details": "inhibitor, allosteric; pH 7.2 imidazole, 5 mM MgSO4, 0.2 mM NADP+, 22 °C; FBP 0.1 mM as optimal assay; enzyme from anoxic liver"}, "[2]": {"target": "T2, FBPase (control liver)", "T2 construct": "gene FBP1; native, purified from liver of normoxic control turtles (phosphocellulose, CM cellulose); ~37 kDa on SDS-PAGE; band sent for mass spectrometry; tetramer in homology model", "details": "inhibitor, allosteric, pH 7.2 imidazole, 5 mM MgSO4, 0.2 mM NADP+, 22 °C, FBP 0.1 mM as optimal assay"}, "[3]": {"target": "T2, FBPase (control liver)", "details": "activation constant, activator, pH 7.2 imidazole, 5 mM MgSO4, 22 °C"}, "[4]": {"target": "T1, FBPase (anoxic liver)", "details": "activation constant, activator, pH 7.2 imidazole, 5 mM MgSO4, 22 °C, enzyme from anoxic liver"}, "[5]": {"tested_on": "T2, FBPase (control liver)", "details": "pH 7.2 imidazole, 5 mM MgSO4, 0.2 mM NADP+, 22 °C; paper states subsaturating FBP (0.24 µM)"}, "[6]": {"tested_on": "T1, FBPase (anoxic liver)", "details": "pH 7.2 imidazole, 5 mM MgSO4, 0.2 mM NADP+, 22 °C; paper states subsaturating FBP (0.24 µM); enzyme from anoxic liver"}}, "data": [{"smiles": "Nc1ncnc2c1ncn2[C@@H]1O[C@H](COP(=O)(O)OP(=O)(O)O)[C@@H](O)[C@H]1O", "note": "[ADP]", "values": [{"measurement": "IC50", "setting": "[1]", "value": "8.3 ± 0.6", "unit": "µM"}, {"measurement": "IC50", "setting": "[2]; text b33 prints mM for this value, table µM", "value": "0.0118 ± 0.0003", "unit": "mM"}]}, {"smiles": "Nc1ncnc2c1ncn2[C@@H]1O[C@H](COP(=O)(O)O)[C@@H](O)[C@H]1O", "note": "[AMP]", "values": [{"measurement": "IC50", "setting": "[1]", "value": "3.6 ± 0.3", "unit": "µM"}, {"measurement": "IC50", "setting": "[2]", "value": "0.0061 ± 0.0001", "unit": "mM"}]}, {"smiles": "Nc1ncnc2c1ncn2[C@@H]1O[C@H](COP(=O)(O)OP(=O)(O)OP(=O)(O)O)[C@@H](O)[C@H]1O", "note": "[ATP.Mg]", "values": [{"measurement": "EC50", "setting": "[3]; ATP.Mg 1:1", "value": "144000 ± 7000", "unit": "nM"}, {"measurement": "EC50", "setting": "[4]; ATP.Mg 1:1", "value": "25 ± 0.9", "unit": "µM"}]}, {"smiles": "C[C@H](N)C(=O)O", "note": "[Alanine]", "values": [{"measurement": "EC50", "setting": "[3]", "value": "2850 ± 240", "unit": "nM"}, {"measurement": "EC50", "setting": "[4]", "value": "3.3 ± 0.1", "unit": "µM"}]}, {"smiles": "O=P(O)(O)OC[C@H]1OC(O)(COP(=O)(O)O)[C@@H](O)[C@@H]1O", "note": "(stereo partly drawn) [FBP]", "values": [{"measurement": "Km", "setting": "[5]", "value": "26.9 ± 3", "unit": "µM"}, {"measurement": "Km", "setting": "[6]", "value": "59.8 ± 5.2", "unit": "µM"}]}, {"smiles": "C=C(OP(=O)(O)O)C(=O)O", "note": "[PEP]", "values": [{"measurement": "EC50", "setting": "[3]", "value": "330 ± 90", "unit": "nM"}, {"measurement": "EC50", "setting": "[4]", "value": "3.3 ± 0.2", "unit": "µM"}]}]}
